A short description of assay [1]: Bone powder binding, fluorometric detection. As to conditions: for Binding to bone (%) Fluorescence: 1 mg/ml compound, bone meal powder 10 mg/ml in PBS, 37° C., 1 h; for binding to osseous matter, in words: bisphosphonates bearing three hydroxy groups. The procedure:
The ability of the example molecules to bind to bone powder was established in two parallel fashions, using either LC/MS or fluorometric detection. For LC/MS detection, a stock solution (5 mM) of the compound to be tested was added to 0.1M Tris-HCl buffer pH 7, 0.15M NaCl to reach a final concentration of 100 μM. Triplicate samples (1 mL) of the compound solutions were intensively shaken for 10 min with or without 25 mg of fresh or 20 mg of vacuum dried ground rat tibia bone. The samples were then centrifuged for 15 min at 10 000 g. The presence of unbound compound was measured by injection of 30 μL of each of the supernatants into an Agilent 1100™ LC/UV system. For fluorometric detection, an individual compound was dissolved in PBS or water (compound 52) and resuspended at a concentration of 1 mg/ml in a slurry of bone meal powder (Now Foods, Bloomingdale, Ill., USA) in PBS at 10 mg/ml. The suspension of drug/prodrug in bone meal powder was incubated at 37° C. for 1 h to allow for binding, and centrifuged at 13 000 rpm for 2 min, before recovering the supernatant. The bone meal powder pellet was then washed three times with 1 ml of PBS. All supernatants were saved and assessed for fluoroquinolone content by fluorescence measurements at excitation/emission wavelengths of 280/465 nm. The amount of fluoroquinolone was determined from standard curves generated for each experiment. Amount of drug/prodrug bound to bone powder was deduced from the difference between the input amount (typically 1 mg) and the amount recovered in the supernatants after binding. In all binding experiments, >99% of input drug was recovered in the supernatant for the parent drugs.

The test system of a further assay is S. aureus ATCC 13709. The assay can be described thus: Prophylactic model of bone infection in rats. The format is in vivo, rat. As to conditions: for prophylactic effect in rat model of bone infection, in words: Table 4 and FIGS. 6-8, doses as in Table 4. How it is done:
To determine the activity in vivo of bisphosphonated prodrugs of fluoroquinolones, compounds 52 and 107, derivatives of parent compounds moxifloxacin 3 (for 52), and compounds 39, 44, 49, 54, 121, 129, 141, 145, 149, derivatives of parent compound gatifloxacin 15, were used in a prophylactic model for infection. Specifically, S. aureus ATCC 13709 cells were grown overnight at 37° C. in brain heart infusion broth (BHIB). Cells were subcultured into fresh BHIB and incubated for 4 to 5 h at 37° C. The cells were washed twice with phosphate-buffered saline (PBS) and resuspended in BHIB supplemented with 10% (vol./vol.) fetal bovine serum at a density of approximately 10^10 colony forming units (CFU)/ml (based upon turbidimetry). The suspension was aliquoted and a portion was used to check the CFU count. The culture was stored frozen (−80° C.) and was used without subculture. For use as an inoculum the culture was thawed, diluted in PBS and kept in an ice bath until it was used.
Animals were infected as described by O'Reilly et al. (Antimicrobial Agents and Chemotherapy (1992), 36(12): 2693-97) to generate the bone infection. Female CD rats (age, 57 to 70 days; n=5/group; Charles River, St-Constant, Canada) were anaesthetized by isofluorane before and during the surgery. Following complete induction of anesthesia, the rat was placed ventral side up and hair was shaved from the surgical site. The skin over the leg was cleaned and disinfected (proviodine-ethanol 70%). A longitudinal incision below the knee joint was made in the sagital plane. The incision was made over the bone below the “knee joint” (tibia head or condyle) but not completely extending to the ankle. A high speed drill fitted with a 2 mm bulb bit was used to drill a hole into the medullar cavity of the tibia. Rats were injected intra-tibially with 0.05 ml 5% sodium morrhuate (sclerosing agent) and then with 0.05 ml of S. aureus suspension (ca. 5×10^5 CFU/rat). The hole was sealed by applying a small amount of dry dental cement which immediately absorbs fluids and adheres to the site. The wound was closed using 3 metal skin clips. Moxifloxacin 3 (as a positive control) was injected once at 10 mg/kg intravenously 1 h postinfection in saline, while the fluoroquinolone prodrugs (prepared in 0.9% saline) were injected as a single intravenous bolus dose at different time points prior to the infection. For comparison, the parent drug (moxifloxacin 3 or gatifloxacin 15) was also injected intravenously once at a molar equivalent dose at the same time point prior the infection.
Infected rats were sacrificed by CO2 asphyxiation 24 h postinfection to monitor the bacterial CFU count. Infected tibiae were removed, dissected free of soft tissue, and weighed. The bones were ground using a metal ball mill, resuspended in 5 ml 0.9% NaCl, serially diluted and processed for quantitative cultures. For compounds 39, 44, 49, 54, 141, 145, 149, 1 ml of the 0.9% NaCl solution was added to 50 mg of charcoal before serial dilutions. Treatment efficacies were measured in terms of Log viable bacteria (Log CFU per gram of bone). The results obtained for each group of rats were evaluated by calculating the mean Log CFU and standard deviation. The limit of detection is 2 Log CFU/g of bone. Statistical comparisons of viable bacterial counts for the different treated and untreated groups were performed with Dunnett's multiple-comparison test. Differences were considered significant when the P value was <0.05 when comparing treated infected animals to the untreated infected ones.

Entries after “also recorded” stand apart in the source; their conditions may differ.

For `O=C(O)c1cn(C2CC2)c2cc(N3CCNCC3)c(F)cc2c1=O` [Compound 6, Ciprofloxacin, reference compound], the “Binding to bone (%) Fluorescence” value in assay [1] is 0%.

`COc1c(N2CCN(C(=O)CC(C)(C)c3cc(P(=O)(O)CP(=O)(O)O)ccc3OP(=O)(O)O)C(C)C2)c(F)cc2c(=O)c(C(=O)O)cn(C3CC3)c12` (centres unmarked) [Compound 153, 7-(4-(3-(2-phosphoryloxy-5-((phosphonomethyl)phosphonoyl)phenyl)-3-methylbutanoyl)-3-methylpiperazin-1-yl)-1-cyclopropyl-6-fluoro-1,4-dihydro-8-methoxy-4-oxoquinoline-3-carboxylic acid]: in assay [1], the “Binding to bone (%) Fluorescence” value is reported as 0% and the “binding to osseous matter, in words” value is listed as “less effectively bound; also recorded: not bound at all”. Moreover, in the assay on S. aureus ATCC 13709 (15 mg/kg IV, 2 days prior to infection), the “Measured bacterial titer (Log CFU/g of bone) Test compound” value is 4.08 ± 0.54 Log CFU/g of bone. In addition, the “prophylactic effect in rat model of bone infection, in words” value (from here on “prophylactic effect in rat model”) with S. aureus ATCC 13709 was “unable to produce a positive result in vivo”. For `COc1c(N2CCN(CCC(=O)c3ccc(OCCCC(P(=O)(O)O)P(=O)(O)O)cc3)C(C)C2)c(F)cc2c(=O)c(C(=O)O)cn(C3CC3)c12` (centres unmarked) [Compound 121, 1-cyclopropyl-6-fluoro-1,4-dihydro-7-(4-(3-(4-(4,4-bisphosphonobutoxy)phenyl)-3-oxopropyl)-3-methylpiperazin-1-yl)-8-methoxy-4-oxoquinoline-3-carboxylic acid], the “Binding to bone (%) Fluorescence” value in assay [1] stood at 94.7%. Also, in the assay with S. aureus ATCC 13709 (20.8 mg/kg IV, 1 day prior to infection), the “Measured bacterial titer (Log CFU/g of bone) Test compound” value is recorded as 3.01 ± 0.47 Log CFU/g of bone. Besides, the “prophylactic effect in rat model” value in the assay on S. aureus ATCC 13709 was “efficient prophylactic effect”. As for `COc1c(N2C[C@@H]3CCCN[C@@H]3C2)c(F)cc2c(=O)c(C(=O)SCC(=O)NC(P(=O)(O)O)P(=O)(O)O)cn(C3CC3)c12` [Compound 99, S-(1,1-Bisphosphonomethylcarbamoyl)methyl 1-cyclopropyl-6-fluoro-1,4-dihydro-7-((4aS,7aS)-octahydropyrrolo[3,4-b]pyridin-6-yl)-8-methoxy-4-oxoquinoline-3-carbothioate], the “Binding to bone (%) Fluorescence” value in assay [1] turned out to be 99.0%.

For `COc1c(N2CCNC(C)C2)c(F)cc2c(=O)c(C(=O)SCCCC(P(=O)(O)O)P(=O)(O)O)cn(C3CC3)c12` (centres unmarked) [Compound 96, S-4,4-bisphosphonobutyl 7-(3-methylpiperazin-1-yl)-1-cyclopropyl-6-fluoro-1,4-dihydro-8-methoxy-4-oxoquinoline-3-carbothioate], the “Binding to bone (%) Fluorescence” value in assay [1] worked out at 98.7%. Take `COc1c(N2C[C@@H]3CCCN(C(=O)CC(P(=O)(O)O)P(=O)(O)O)[C@@H]3C2)c(F)cc2c(=O)c(C(=O)O)cn(C3CC3)c12` [Compound 107, 7-((4aS,7aS)-1-(3,3-bisphosphonopropionyl)-octahydropyrrolo[3,4-b]pyridin-6-yl)-1-cyclopropyl-6-fluoro-1,4-dihydro-8-methoxy-4-oxoquinoline-3-carboxylic acid]: in assay [1], the “Binding to bone (%) Fluorescence” value came to 98.2%. Further, the “Measured bacterial titer (Log CFU/g of bone) Test compound” value in the assay with S. aureus ATCC 13709 (19.4 mg/kg IV, 1 day prior to infection) is on record as 5.40 ± 0.93 Log CFU/g of bone. Besides, in the assay with S. aureus ATCC 13709, the “prophylactic effect in rat model” value is reported as “lack of effect”. In the case of `COc1c(N2CCN(C(=O)CC(C)(C)c3cc(P(=O)(O)CP(=O)(O)O)ccc3OC(=O)C(C)C)C(C)C2)c(F)cc2c(=O)c(C(=O)O)cn(C3CC3)c12` (centres unmarked) [Compound 145, 7-(4-(3-(2-(2,2-dimethylacetoxy)-5-((phosphonomethyl)phosphonoyl)phenyl)-3-methylbutanoyl)-3-methylpiperazin-1-yl)-1-cyclopropyl-6-fluoro-1,4-dihydro-8-methoxy-4-oxoquinoline-3-carboxylic acid], in assay [1], the “Binding to bone (%) Fluorescence” value was 76.0% and the “binding to osseous matter, in words” value is given as “less effectively bound”. For the same compound, in the assay with S. aureus ATCC 13709 (47.2 mg/kg IV, 2 days prior to infection), the “Measured bacterial titer (Log CFU/g of bone) Test compound” value is given as 4.69 ± 0.78 Log CFU/g of bone. Further, the “prophylactic effect in rat model” value in the assay on S. aureus ATCC 13709 is reported as “unable to produce a positive result in vivo”. Regarding `COc1c(N2C[C@@H]3CCCN(C(=O)OCC(=O)Nc4ccc(CC(P(=O)(O)O)P(=O)(O)O)cc4)[C@@H]3C2)c(F)cc2c(=O)c(C(=O)O)cn(C3CC3)c12` [Compound 117, 7-((4aS,7aS)-1-(((4-(2,2-bisphosphonoethyl)phenylcarbamoyl)methoxy)carbonyl)-octahydropyrrolo[3,4-b]pyridin-6-yl)-1-cyclopropyl-6-fluoro-1,4-dihydro-8-methoxy-4-oxoquinoline-3-carboxylic acid], the “Binding to bone (%) Fluorescence” value in assay [1] was found to be 99.4%. Same read-out and setting: for `COc1c(N2CCN(C(=O)CC(P(=O)(O)O)P(=O)(O)O)C(C)C2)c(F)cc2c(=O)c(C(=O)O)cn(C3CC3)c12` (centres unmarked) [Compound 112, 7-(4-(3,3-bisphosphonopropionyl)-3-methylpiperazin-1-yl)-1-cyclopropyl-6-fluoro-1,4-dihydro-8-methoxy-4-oxoquinoline-3-carboxylic acid] the value was 82.5%; for `COc1c(N2CCNC(C)C2)c(F)cc2c(=O)c(C(=O)OCC(=O)NCCCC[C@@H](NC(=O)COC(=O)c3cn(C4CC4)c4c(OC)c(N5CCNC(C)C5)c(F)cc4c3=O)C(=O)NC(P(=O)(O)O)P(=O)(O)O)cn(C3CC3)c12` (some centres unmarked) [Compound 134], 92.8%; for `COc1c(N2C[C@@H]3CCCN[C@@H]3C2)c(F)cc2c(=O)c(C(=O)OCC(=O)N(C)C(P(=O)(O)O)P(=O)(O)O)cn(C3CC3)c12` [Compound 80, (N-Methyl-1,1-Bisphosphonomethylcarbamoyl)methyl 1-cyclopropyl-6-fluoro-1,4-dihydro-7-((4aS,7aS)-octahydropyrrolo[3,4-b]pyridin-6-yl)-8-methoxy-4-oxoquinoline-3-carboxylate], 97.3%. The same measure, in the same setting: for `COc1c(N2C[C@@H]3CCCN[C@@H]3C2)c(F)cc2c(=O)c(C(=O)OCC(=O)Nc3ccc(CC(P(=O)(O)O)P(=O)(O)O)cc3)cn(C3CC3)c12` [Compound 62, (4-(2,2-Bisphosphonoethyl)phenylcarbamoyl)methyl 1-cyclopropyl-6-fluoro-1,4-dihydro-7-((4aS,7aS)-octahydropyrrolo[3,4-b]pyridin-6-yl)-8-methoxy-4-oxoquinoline-3-carboxylate] the value was 97.2%; for `COc1c(N2C[C@@H]3CCCN[C@@H]3C2)c(F)cc2c(=O)c(C(=O)SCCCC(P(=O)(O)O)P(=O)(O)O)cn(C3CC3)c12` [Compound 94, S-4,4-bisphosphonobutyl 7-((4aS,7aS)-octahydropyrrolo[3,4-b]pyridin-6-yl)-1-cyclopropyl-6-fluoro-1,4-dihydro-8-methoxy-4-oxoquinoline-3-carbothioate], 99.9%.

For the origin of these results see patent US20080287396A1, “Phosphonated Fluoroquinolones, Antibacterial Analogs Thereof, and Methods for the Prevention and Treatment of Bone and Joint Infections” (TARGANTA THERAPEUTICA INC., priority 2005, published 2008).
